This passage reports IC90 results from US20230141600A1, “IMIDAZOPYRAZINE DERIVATIVES” (priority 2020, published 2023).

Each structure is given as a SMILES string. Where a name gives a salt, the structure may show the parent alone.

In the first test the test system is Acinetobacter baumannii ATCC17961. As to the kind of experiment: 90% growth inhibitory concentration (IC90) determination, antimicrobial susceptibility testing. It counts as cell-based. As to conditions: 90% growth inhibition, Iso-Sensitest broth, OD 600 nm over 16 h, 35±2° C.; read-out: ATCC 17961 IC90. As for the experimental part: Antimicrobial Susceptibility Testing:
90% Growth Inhibitory Concentration (IC90) Determination
The in vitro antimicrobial activity of the compounds was determined according to the following procedure:
The assay used a 10-points Iso-Sensitest broth medium to measure quantitatively the in vitro activity of the compounds against Acinetobacter baumannii ATCC17961 and ATCC17978.
Stock compounds in DMSO were serially twofold diluted (e.g. range from 50 to 0.097 μM final concentration) in 384 wells microtiter plates and inoculated with 49 μl the bacterial suspension in Iso-Sensitest medium to have a final cell concentration of ˜5×10^(5) CFU/ml in a final volume/well of 50 ul/well. Microtiter plates were incubated at 35±2° C.
Bacterial cell growth was determined with the measurement of optical density at λ=600 nm each minutes over a time course of 16 h. Growth inhibition was calculated during the logarithmic growth of the bacterial cells with determination of the concentration inhibiting 50% (IC50) and 90% (IC90) of the growth.
Table 2 provides the 90% growth inhibitory concentrations (IC90) in micromoles per liter of the compounds of present invention obtained against the strain Acinetobacter baumannii ATCC17961.
As for `CCc1cc(Nc2nccn3c(-c4ccc(OC)c(F)c4F)cnc23)ccc1C(=O)NCC[C@H](NC(=O)C1CC[N+](C)(CC2CNC2)CC1)C(=O)OC` (mixture of isomers) [Example 121, Methyl (2S)-2-[[1-(azetidin-3-ylmethyl)-1-methyl-piperidin-1-ium-4-carbonyl]amino]-4-[[4-[[3-(2,3-difluoro-4-methoxy-phenyl)imidazo[1,2-a]pyrazin-8-yl]amino]-2-ethyl-benzoyl]amino]butanoate formate 2,2,2-trifluoroacetate (Mixed Salt)], the IC90 was 854 nM. As for `CCc1cc(Nc2nccn3c(-c4ccc(OC)c(F)c4F)cnc23)ccc1C(=O)NCC[C@H](NC(=O)C1CC[N+](C)(CC2CNC2)CC1)C(=O)OC` (mixture of isomers) [Example 123, Methyl (2S)-2-[[1-(azetidin-3-ylmethyl)-1-methyl-piperidin-1-ium-4-carbonyl]amino]-4-[[4-[[3-(2,3-difluoro-4-methoxy-phenyl)imidazo[1,2-a]pyrazin-8-yl]amino]-2-ethyl-benzoyl]amino]butanoate formate 2,2,2-trifluoroacetate (Mixed Salt)], the IC90 was 5000 nM.

The same test, now with this note: Acinetobacter baumannii, ATCC17961, 16 h, 90% growth inhibition, Iso-Sensitest broth, OD 600 nm over 16 h, 35±2° C.; read-out: ATCC 17961 IC90.
Consider `CCc1cc(Nc2nccn3c(-c4ccc(OC)c(F)c4F)cnc23)ccc1C(=O)NC[C@H](NC(=O)C1CC[N+](C)(CC2CNC2)CC1)C(=O)OC` (mixture of isomers) [Example 120, Methyl (2S)-2-[[1-(azetidin-3-ylmethyl)-1-methyl-piperidin-1-ium-4-carbonyl]amino]-3-[[4-[[3-(2,3-difluoro-4-methoxy-phenyl)imidazo[1,2-a]pyrazin-8-yl]amino]-2-ethyl-benzoyl]amino]propanoate formate 2,2,2-trifluoroacetate (Mixed Salt)], for which the 90% effect concentration (IC90) turned out to be 682 nM. In the case of `CCc1cc(Nc2nccn3c(-c4ccc(OC)c(F)c4F)cnc23)ccc1C(=O)N[C@@H](CNC(=O)C1CC[N+](C)(CC2CNC2)CC1)C(=O)OC` (mixture of isomers) [Example 122, Methyl (2S)-3-[[1-(azetidin-3-ylmethyl)-1-methyl-piperidin-1-ium-4-carbonyl]amino]-2-[[4-[[3-(2,3-difluoro-4-methoxy-phenyl)imidazo[1,2-a]pyrazin-8-yl]amino]-2-ethyl-benzoyl]amino]propanoate formate 2,2,2-trifluoroacetate (Mixed Salt)], the IC90 was found to be 1110 nM. Still for that read-out and setting: for `CCc1cc(Nc2nccn3c(-c4ccc(OC)c(F)c4F)cnc23)ccc1C(=O)N[C@H]1[C@@H]2C[N+](C)(CC3CNC3)C[C@@H]21` (mixture of isomers) [Example 137, 4-[[3-(2,3-Difluoro-4-methoxy-phenyl)imidazo[1,2-a]pyrazin-8-yl]amino]-2-ethyl-N-[rac-(1S,5R)-3-(azetidin-3-ylmethyl)-3-methyl-3-azoniabicyclo[3.1.0]hexan-6-yl]benzamide bis(2,2,2-trifluoroacetate)] the value was 1220 nM. With `CCc1cc(Nc2nccn3c(-c4ccc(Oc5ncccn5)c(F)c4F)cnc23)ccc1C(=O)NCCCNC(=O)C1CC[N+](C)(CC2CCNC2)CC1` (stereo not shown) [Example 3, N-[3-[[4-[[3-(2,3-difluoro-4-pyrimidin-2-yloxy-phenyl)imidazo[1,2-a]pyrazin-8-yl]amino]-2-ethyl-benzoyl]amino]propyl]-1-methyl-1-(pyrrolidin-3-ylmethyl)piperidin-1-ium-4-carboxamide Formate], the IC90 came out at 484 nM. Same read-out and setting: the figure for `CCc1cc(Nc2nccn3c(-c4cn(CC#N)nc4C(F)(F)F)cnc23)ccc1C(=O)NCCOCC[N+]1(CC#N)CCCC1` [Example 4, 1-(Cyanomethyl)-1-(2-(2-(4-((3-(1-(cyanomethyl)-3-(trifluoromethyl)-1H-pyrazol-4-yl)imidazo[1,2-a]pyrazin-8-yl)amino)-2-ethylbenzamido)ethoxy)ethyl)pyrrolidin-1-ium Formate] is 267 nM.
